Test results as given in patent US7410986B2, “4-6-diphenyl pyridine derivatives as antiinflammatory agents” (Bayer Aktiengesellschaft, priority 2000, dated 2008).
Counter-ions that a name gives are not always drawn. Like-named read-outs stand apart in the source and are kept apart here.

Experiments:
human IKK-β = biological target: T1, human IKK-β (Homo sapiens, UniProt O14920); experiment: IKK-β kinase inhibitory assay; assay type: biochemical; settings: compounds of about 40 to 90% purity, read-out: In vitro activity grade (invitro, IC50)
T1 construct: A cDNA fragment encoding human IKK-β open reading frame was generated by PCR; His; made in house; host or cells: Sf21 insect cells (baculovirus); the GST-IκBα substrate was made in E. coli
T1 sequence (O14920 1-756): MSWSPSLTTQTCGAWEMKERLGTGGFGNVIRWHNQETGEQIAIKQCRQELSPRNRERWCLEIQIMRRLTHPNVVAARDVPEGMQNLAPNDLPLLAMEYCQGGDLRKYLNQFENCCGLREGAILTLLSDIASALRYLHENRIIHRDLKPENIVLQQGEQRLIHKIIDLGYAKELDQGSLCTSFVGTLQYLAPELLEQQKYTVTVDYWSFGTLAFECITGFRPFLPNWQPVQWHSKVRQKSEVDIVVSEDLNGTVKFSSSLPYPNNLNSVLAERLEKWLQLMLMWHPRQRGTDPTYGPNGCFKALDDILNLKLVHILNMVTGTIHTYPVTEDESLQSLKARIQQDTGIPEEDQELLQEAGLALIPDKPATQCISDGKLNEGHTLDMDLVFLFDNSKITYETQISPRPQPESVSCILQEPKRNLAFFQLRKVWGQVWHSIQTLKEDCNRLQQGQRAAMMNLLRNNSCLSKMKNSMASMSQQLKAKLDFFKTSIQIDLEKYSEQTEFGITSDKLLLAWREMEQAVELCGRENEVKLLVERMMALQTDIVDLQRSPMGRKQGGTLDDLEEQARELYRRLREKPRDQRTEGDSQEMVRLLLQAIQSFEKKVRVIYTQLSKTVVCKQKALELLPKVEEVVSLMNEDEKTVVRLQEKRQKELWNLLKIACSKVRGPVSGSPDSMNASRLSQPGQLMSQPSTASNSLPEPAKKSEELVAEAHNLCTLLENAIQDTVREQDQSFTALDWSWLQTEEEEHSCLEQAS
Outline: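 His-tagged human IKK-β from baculovirus-infected Sf21 cells (final 0.6 μg/ml) with biotinylated GST-IκBα (1-54) (final 0.2 μM) in Tris-HCl pH 7.6/MgCl2 buffer with 2.5% DMSO compound. Reaction started with ATP plus [γ-^33P] ATP, 2 hrs at room temperature; EDTA-stopped, substrate captured on streptavidin plates and bound radioactivity counted by scintillation.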

[1] = tested on: RANTES production in response to TNF-α from A549 cells; experiment: RANTES production in response to TNF-α from A549 cells; assay type: cell-based, human; settings: 100 ng/ml TNF-α, compounds of about 40 to 90% purity, read-out: Cellular activity grade (A549, IC50)

SMILES	IC50 (human IKK-β) [nM]	IC50 ([1]; Homo sapiens, A549, 24 h) [nM]	IC50 ([1]; 24 hrs) [nM]
CCCCNCC(=O)Nc1cc(-c2cc(-c3ccccc3O)nc(N)c2C#N)ccc1OCC1CC1 [Example 4-33]	> 10000	> 10000	
CC(=O)Nc1nc(-c2ccccc2O)cc(-c2cccc(NC(=O)CCN3CCCCC3)c2)c1C#N [Example 2-06]	> 10000	> 10000	
N#Cc1c(-c2cccc(NC(=O)CCN3CCCCC3)c2)cc(-c2ccccc2O)nc1N [Example 2-1, N-{3-[2-amino-3-cyano-6-(2-hydroxyphenyl)-4-pyridinyl]phenyl}-3-(1-piperidinyl)propanamide hydrochloride]	500 to 2000	1000 to 10000	
N#Cc1c(-c2cccc(NC(=O)NCCN3CCCCC3)c2)cc(-c2ccccc2O)nc1N [Example 2-09]	500 to 2000	1000 to 10000	
N#Cc1c(-c2ccc(N3CCOCC3)c(NC(=O)CCN)c2)cc(-c2ccccc2O)nc1N [Example 3-06]	500 to 2000	1000 to 10000	
N#Cc1c(-c2cccc(NC(=O)C3CCC(=O)O3)c2)cc(-c2ccccc2O)nc1N (centres unmarked) [Example 1-03]	500 to 2000		> 10000

Next, values leading:

IC50 (human IKK-β) [nM]	IC50 ([1]; Homo sapiens, A549, 24 h) [nM]	IC50 ([1]; 24 hrs) [nM]	SMILES
500 to 2000	> 10000		N#Cc1c(-c2cccc(NC(=O)C(O)CCC(=O)O)c2)cc(-c2ccccc2O)nc1N (centres unmarked) [Example 1-2, Sodium 5-({3-[2-amino-3-cyano-6-(2-hydroxyphenyl)-4-pyridinyl]phenyl}amino)-4-hydroxy-5-oxopentanoate]
500 to 2000	1000 to 10000		CC(=O)Nc1ccc(-c2cc(-c3ccccc3O)nc(N)c2C#N)cc1OCCN1CCCCC1 [Example 9, N-{4-[2-amino-3-cyano-6-(2-hydroxyphenyl)-4-pyridinyl]-2-[2-(1-piperidinyl)ethoxy]phenyl}acetamide ditrifluoroacetate]
500 to 2000	1000 to 10000		N#Cc1c(-c2cccc(NC(=O)CN3CCCC3)c2)cc(-c2ccccc2O)nc1N [Example 4-23]
< 500	1000 to 10000		CC(C)C[C@H](N)C(=O)Nc1cc(-c2cc(-c3ccccc3O)nc(N)c2C#N)ccc1N1CCC(NC(=O)C(F)(F)F)C1 (some centres unmarked) [Example 3-16]
